# Measurements taken from patent US11155517B2, “4-substituted phenylamine derivatives and their use to protect crops by fighting undesired phytopathogenic micoorganisms” (PI INDUSTRIES LTD., priority 2016, dated 2021).
# Key:
# [1] = test system: Colletotrichum capsici; test: Colletotrichum capsici (anthracnose) in vitro test, radial growth on Potato Dextrose Agar; assay type: cell-based; settings: Colletotrichum truncatum, 168 h; 300 ppm; seven days, 25° C.; read-out: % control compared to the untreated check (radial growth)
# [2] = test system: Fusarium culmorum; test: Fusarium culmorum (foot rot of cereals) in vitro test, radial growth on Potato Dextrose Agar; assay type: cell-based; settings: Fusarium culmorum, 168 h, read-out: % control compared to the untreated check (radial growth)
# [3] = test system: Septoria lycopersici; test: Septoria lycopersici (leaf spot of tomato) in vitro test, radial growth on Potato Dextrose Agar; assay type: cell-based; settings: 168 h, seven days, 25° C., read-out: % control compared to the untreated check (radial growth)
# [4] = test system: Alternaria solani; test: Alternaria solani (early blight of tomato/potato) in vitro test, radial growth on Potato Dextrose Agar; assay type: cell-based; settings: 168 h, 300 ppm, seven days, 25° C., read-out: % control compared to the untreated check (radial growth)
# [5] = test system: Pyricularia oryzae; test: whole plant or invertebrate; assay type: in vivo; settings: 24 h, read-out: Efficacy (% control), disease severity vs untreated check
# [6] = test system: Rhizoctonia solani; test: Rhizoctonia solani (rice sheath blight/potato black scurf) in vitro test, radial growth on Potato Dextrose Agar; assay type: cell-based; settings: 168 h, 300 ppm, seven days, 25° C., read-out: % control compared to the untreated check (radial growth)
# [7] = test system: Botrytis cinerea; test: Botrytis cinerea (gray mold) in vitro test, radial growth on Potato Dextrose Agar; assay type: cell-based; settings: 168 h, 300 ppm, seven days, 22° C., read-out: % (control) compared to the untreated check (radial growth)
# [8] = test system: Pyricularia oryzae; test: microbe, parasite or virus in culture; assay type: cell-based; settings: 168 h, read-out: % control compared to the untreated check (radial growth)
# [9] = test system: Botrytis cinera; test: Greenhouse Botrytis cinera test in tomato, preventive; assay type: in vivo; settings: 24 h, plants sprayed one day before inoculation, read-out: Efficacy (% control), disease severity vs untreated check
# [10] = test system: Alternaria solani; test: Greenhouse Alternaria solani test in tomato, preventive; assay type: in vivo; settings: 24 h, tomato plants sprayed one day before inoculation, read-out: Efficacy (% control), disease severity vs untreated check
# Protocol: Compounds were dissolved in 2% DMSO/Acetone & then mixed with water to calibrated spray volume of 50 ml. This 50 ml spray solution was poured into the spray bottles for further applications. To test the preventive activity of compounds, healthy young Tomato plants raised in the greenhouse were sprayed with active compound preparation at the stated application rates inside the spray cabinets using hallowcone nozzles. One day after treatment, the plants were inoculated with spore suspension (2% Malt) containing 0.24×10^6 Alternaria solani inoculum. The inoculated plants were then kept in greenhouse chamber at 22-24° C. temperature and 90-95% relative humidity for disease expression. […] Efficacy (% control) of the compounds was calculated by comparing the disease rating in the treatment with untreated control. The sprayed plants were also assessed for compound's phytotoxic effects by recording symptoms like necrosis, chlorosis and stunting.
# [11] = test system: Fusarium culmorum; test: Greenhouse Fusarium culmorum test in wheat, preventive; assay type: in vivo; settings: 24 h, read-out: Efficacy (% control), disease severity vs untreated check
# Procedure, shortened: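 Young greenhouse wheat sprayed preventively at stated rates (compounds in 2% DMSO/acetone, diluted in water), inoculated one day later with 2×10^6 Fusarium culmorum spores in 2% malt, held at 24 °C, 80-90% RH. Disease severity (0-100%) rated 3, 7, 10 and 15 days after application; % control versus untreated, phytotoxicity also recorded.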
SMILES,inhibition of growth at 300 ppm [1],inhibition of growth at 300 ppm [2],inhibition of growth at 300 ppm [3],inhibition of growth at 300 ppm [4],pest or weed control at 500 ppm [5],inhibition of growth at 300 ppm [6],inhibition of growth at 300 ppm [7],inhibition of growth at 300 ppm [8],pest or weed control at 500 ppm [9],pest or weed control at 500 ppm [10],pest or weed control at 500 ppm [11]
"CCN(C)C=Nc1cc(C)c(Cc2cccc(OC(F)(F)F)c2)cc1C [Compound 51, N′-(2,5-dimethyl-4-(3-(trifluoromethoxy)benzyl)phenyl)-N-ethyl-N-methylformimidamide]",> 80%,75%,> 70%,> 75%,70 to 100%,> 80%,> 80%,> 75%,,,
"CCN(C)C=Nc1cc(C)c(Cc2ccc(F)cc2Cl)cc1C [Compound 110, N′-(4-(2-chloro-4-fluorobenzyl)-2,5-dimethylphenyl)-N-ethyl-N-methylformimidamide]",> 80%,75%,> 70%,> 75%,70 to 100%,> 80%,> 80%,> 75%,,,
"CCN(C)C=Nc1cc(C)c(Cc2cc(C)ccc2C)cc1C [Compound 26, N′-(4-(2,5-dimethylbenzyl)-2,5-dimethylphenyl)-N-ethyl-N-methylformimidamide]",> 80%,75%,> 70%,> 75%,70 to 100%,> 80%,> 80%,> 75%,,,
"CCN(C)C=Nc1cc(C)c(Cc2ccc(C(F)(F)F)cc2)cc1C [Compound 94, N′-(2,5-dimethyl-4-(4-(trifluoromethyl)benzyl)phenyl)-N-ethyl-N-methylformimidamide]",> 80%,75%,> 70%,> 75%,70 to 100%,> 80%,> 80%,> 75%,70 to 100%,,
"CCN(C)C=Nc1cc(C)c(Cc2cccc(C)c2C)cc1C [Compound 112, N′-(4-(2,3-dimethylbenzyl)-2,5-dimethylphenyl)-N-ethyl-N-methylformimidamide]",> 80%,75%,> 70%,> 75%,70 to 100%,> 80%,,> 75%,,,
"CCN(C)C=Nc1cc(Cl)c(Cc2cccc(F)c2)cc1Cl [Compound 148, N′-(2,5-dichloro-4-(3-fluorobenzyl)phenyl)-N-ethyl-N-methylformimidamide]",,,,> 75%,70 to 100%,,,> 75%,,,
"CCN(C)C=Nc1cc(C)c(Cc2ccccc2SC)cc1C [Compound 23, N′-(2,5-dimethyl-4-(2-(methylthio)benzyl)phenyl)-N-ethyl-N-methylformimidamide]",> 80%,75%,> 70%,> 75%,,> 80%,> 80%,> 75%,70 to 100%,70 to 100%,70 to 100%
"CCN(C)C=Nc1cc(C)c(Cc2ccccc2C)cc1C [Compound 32, N′-(2,5-dimethyl-4-(2-methylbenzyl)phenyl)-N-ethyl-N-methylformimidamide]",> 80%,75%,> 70%,> 75%,,> 80%,> 80%,> 75%,70 to 100%,70 to 100%,70 to 100%
"CCN(C)C=Nc1cc(C)c(Cc2cc(C(F)(F)F)cc(C(F)(F)F)c2)cc1Cl [Compound 96, N′-(4-(3,5-bis(trifluoromethyl)benzyl)-2-chloro-5-methylphenyl)-N-ethyl-N-methylformimidamide]",,,,> 75%,70 to 100%,,,,,,70 to 100%
"Cc1cc(N=CN2CCOCC2)c(C)cc1Cc1ccccc1Cl [Compound 63, N-(4-(2-chlorobenzyl)-2,5-dimethylphenyl)-1-morpholinomethanimine]",> 80%,75%,> 70%,> 75%,70 to 100%,> 80%,> 80%,> 75%,,,
"CNC=Nc1cc(C)c(Cc2cccc(F)c2)cc1Cl [Compound 42, N′-(2-chloro-4-(3-fluorobenzyl)-5-methylphenyl)-N-methylformimidamide]",> 80%,75%,> 70%,> 75%,,> 80%,> 80%,> 75%,,70 to 100%,70 to 100%
"CCN(C)C=Nc1cc(C)c(Cc2ccccc2C(F)(F)F)cc1Cl [Compound 103, N′-(2-chloro-5-methyl-4-(2-(trifluoromethyl)benzyl)phenyl)-N-ethyl-N-methylformimidamide]",> 80%,,,> 75%,70 to 100%,> 80%,> 80%,> 75%,70 to 100%,,
"CCN(C)C=Nc1cc(Cl)c(Cc2ccccc2F)cc1Cl [Compound 149, N′-(2,5-dichloro-4-(2-fluorobenzyl)phenyl)-N-ethyl-N-methylformimidamide]",,,,> 75%,70 to 100%,,> 80%,> 75%,,,70 to 100%
"CCN(C)C=Nc1cc(C)c(Cc2cc(F)cc(Cl)c2)cc1C [Compound 135, N′-(4-(3-chloro-5-fluorobenzyl)-2,5-dimethylphenyl)-N-ethyl-N-methylformimidamide]",> 80%,,> 70%,> 75%,70 to 100%,> 80%,> 80%,> 75%,,,
"CCN(C)C=Nc1cc(C)c(Cc2ccc(Cl)c(C)c2)cc1Cl [Compound 120, N′-(2-chloro-4-(4-chloro-3-methylbenzyl)-5-methylphenyl)-N-ethyl-N-methylformimidamide]",> 80%,75%,,> 75%,70 to 100%,> 80%,> 80%,> 75%,,,
"CCN(C)C=Nc1cc(C)c(Cc2cccc(Cl)c2Cl)cc1C [Compound 133, N′-(4-(2,3-dichlorobenzyl)-2,5-dimethylphenyl)-N-ethyl-N-methylformimidamide]",> 80%,,> 70%,> 75%,70 to 100%,> 80%,> 80%,> 75%,70 to 100%,,
"CCN(C)C=Nc1cc(C)c(Cc2ccc(C)cc2)cc1Cl [Compound 44, N′-(2-chloro-5-methyl-4-(4-methylbenzyl)phenyl)-N-ethyl-N-methylformimidamide]",> 80%,75%,> 70%,> 75%,70 to 100%,> 80%,> 80%,> 75%,,,
"CCN(C)C=Nc1cc(C)c(Cc2ccccc2C(F)(F)F)cc1C [Compound 93, N′-(2,5-dimethyl-4-(2-(trifluoromethyl)benzyl)phenyl)-N-ethyl-N-methylformimidamide]",> 80%,75%,> 70%,> 75%,70 to 100%,> 80%,> 80%,> 75%,,,
